The target of data set [1] is T1, Tyrosine-protein phosphatase non-receptor type 1 (Homo sapiens) (UniProt P18031).
T1 sequence (whole entry): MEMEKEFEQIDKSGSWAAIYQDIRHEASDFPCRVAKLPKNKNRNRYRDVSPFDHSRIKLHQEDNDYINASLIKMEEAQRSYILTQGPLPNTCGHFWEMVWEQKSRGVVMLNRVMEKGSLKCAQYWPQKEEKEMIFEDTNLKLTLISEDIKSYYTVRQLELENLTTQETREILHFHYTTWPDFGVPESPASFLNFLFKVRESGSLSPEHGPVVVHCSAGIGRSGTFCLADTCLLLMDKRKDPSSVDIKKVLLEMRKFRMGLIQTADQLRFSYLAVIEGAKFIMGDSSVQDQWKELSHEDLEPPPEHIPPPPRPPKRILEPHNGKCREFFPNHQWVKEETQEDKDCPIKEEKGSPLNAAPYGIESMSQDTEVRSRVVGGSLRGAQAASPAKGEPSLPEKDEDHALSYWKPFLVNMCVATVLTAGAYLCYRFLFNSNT
The data set is described as follows: Induction of thermal stabilization of PTP1B in human HepG2 cells at 2.5 u incubated for 6 hrs followed by heat exposure at 51 to 65 degreeC for 4 mins by CETSA. The class given is cell-based.

Another data set relates to HepG2. The data set is described as follows: Inhibition of insulin-resistance in insulin-resistant human HepG2 cells assessed as increase in AKT phosphorylation pretreated for 24 hrs followed by compound washout and further addition of insulin measured after 20 mins by Western blot analysis. The class given is functional, cell-based. The following applies: dose 0.625-2.5 µM. In general terms: In western blotting, separated proteins are transferred to a membrane and probed.

In data set [2] the test system is Mus musculus. The experiment in a line: Hypoglycemic activity in BKD db/db mouse assessed as increase in AKT phosphorylation in skeletal muscle at 40 to 80 mg/kg/day, po for 8 weeks by Western blot analysis. The class given is functional, organism-based. The conditions noted are these: dose 40-80 mg/kg/day.
Data set [3] has as its target T2, Tyrosine-protein phosphatase non-receptor type 1 (Homo sapiens, UniProt P18031).
T2 sequence (P18031 whole entry): T1 sequence (whole entry)
The experiment in a line: Binding affinity to PTP1B (unknown origin) assessed as dissociation constant by SPR analysis.

Data set [4] can be described thus: Toxicity in BKD db/db mouse assessed as effect on liver weight at 40 to 80 mg/kg/day, po qd for 8 weeks. The format is organism-based. The conditions noted are these: in vivo, 1344 h, dose 40-80 mg/kg/day.
Another data set deals with 3T3-L1. The data set is described as follows: Inhibition of insulin-resistance in insulin-resistant mouse 3T3-L1 cells assessed as increase in AKT phosphorylation pretreated for 24 hrs followed by compound washout and further addition of insulin measured after 20 mins by Western blot analysis. The class given is functional, cell-based. The following applies: dose 0.625-2.5 µM.

The nature of data set [5]: Toxicity in BKD db/db mouse assessed as effect on epididymal white adipose tissue weight at 40 to 80 mg/kg/day, po qd for 8 weeks. The class given is organism-based. The conditions noted are these: in vivo, 1344 h, dose 40-80 mg/kg/day.
For data set [6], the system named is C2C12. The data set is described as follows: Inhibition of insulin-resistance in insulin-resistant mouse C2C12 cells assessed as increase in AKT phosphorylation pretreated for 24 hrs followed by compound washout and further addition of insulin measured after 20 mins by Western blot analysis. The format is functional, cell-based. The conditions noted are these: dose 0.625-2.5 µM.

In data set [7] the target is T3, Tyrosine-protein phosphatase non-receptor type 11 (Homo sapiens, UniProt Q06124).
T3 sequence (Q06124 whole entry): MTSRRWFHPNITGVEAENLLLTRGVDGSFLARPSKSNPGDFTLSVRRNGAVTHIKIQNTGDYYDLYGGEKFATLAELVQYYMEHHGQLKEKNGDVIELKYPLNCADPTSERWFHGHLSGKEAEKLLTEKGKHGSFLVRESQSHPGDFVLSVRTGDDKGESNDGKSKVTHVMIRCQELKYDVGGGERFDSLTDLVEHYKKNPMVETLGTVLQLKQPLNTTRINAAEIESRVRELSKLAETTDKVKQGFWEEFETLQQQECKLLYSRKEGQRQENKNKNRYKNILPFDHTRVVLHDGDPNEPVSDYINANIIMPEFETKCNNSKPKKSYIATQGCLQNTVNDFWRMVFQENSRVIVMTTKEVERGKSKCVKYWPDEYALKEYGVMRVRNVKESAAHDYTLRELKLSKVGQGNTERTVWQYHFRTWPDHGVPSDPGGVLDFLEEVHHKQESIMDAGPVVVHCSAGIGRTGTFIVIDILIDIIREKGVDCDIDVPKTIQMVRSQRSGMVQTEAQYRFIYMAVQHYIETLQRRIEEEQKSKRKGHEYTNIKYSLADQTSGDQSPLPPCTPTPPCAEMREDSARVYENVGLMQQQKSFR
The data set is described as follows: Inhibition of SHP2 (unknown origin) using pNPP as substrate incubated for 30 mins by spectrophotometry.

In data set [8] the test system is Mus musculus. The experiment in a line: Hypoglycemic activity in BKD db/db mouse assessed as decrease in blood glucose level at 40 to 80 mg/kg/day, po qd for 3 to 4 weeks. The class given is functional, organism-based. The following applies: dose 40-80 mg/kg/day, time 3-4 weeks.
The test system of data set [9] is Mus musculus. The experiment in a line: Hypoglycemic activity in BKD db/db mouse assessed as decrease in blood glucose level at 40 to 80 mg/kg/day, po for 7 weeks followed by insulin injection by […] method. The format is functional, organism-based. The conditions noted are these: dose 40-80 mg/kg/day.
The test system of data set [10] is Mus musculus. The data set is described as follows: Hypoglycemic activity in BKD db/db mouse assessed as increase in insulin receptor phosphorylation in liver at 40 to 80 mg/kg/day, po for 8 weeks by Western blot analysis. The class given is functional, organism-based. The conditions noted are these: dose 40-80 mg/kg/day.
The nature of data set [11]: Toxicity in BKD db/db mouse assessed as effect on body weight at 40 to 80 mg/kg/day, po qd for 8 weeks. The class given is organism-based. The conditions noted are these: in vivo, 1344 h, dose 40-80 mg/kg/day.
For data set [12], the system named is Mus musculus. The data set is described as follows: Hypoglycemic activity in BKD db/db mouse assessed as increase in insulin receptor phosphorylation in skeletal muscle at 40 to 80 mg/kg/day, po for 8 weeks by Western blot analysis. The class given is functional, organism-based. The following applies: dose 40-80 mg/kg/day.
Data set [13] is described as follows: Acute toxicity in Kunming mouse assessed as change in cell morphology of spleen at 2000 mg/kg, po measured for 14 days by H and E staining based analysis. The format is organism-based. The conditions noted are these: in vivo, 336 h, time 14 day.
For data set [14], the system named is Mus musculus. The experiment in a line: Hypoglycemic activity in BKD db/db mouse assessed as increase in AKT phosphorylation in epididymal white adipose tissue at 40 to 80 mg/kg/day, po for 8 weeks by Western blot analysis. The class given is functional, organism-based. The following applies: dose 40-80 mg/kg/day.
For data set [15], the system named is C2C12. The experiment in a line: Induction of glucose uptake in mouse C2C12 cells cultured in low glucose medium containing compound for 24 hrs. The class given is functional, cell-based. The conditions noted are these: dose 0.625-2.5 µmol/L.

The source made the active and inactive calls. The calls are words filed in the database; no cut-off is given here.

We go through 1 compound from ChEMBL document CHEMBL6096654, “Allosteric inhibition of PTP1B by bromocatechol-chalcone derivatives” (Eur J Med Chem, 2025).

By Kd is commonly meant the equilibrium constant for the complex coming apart. For orientation: IC50 means the concentration that gives 50% inhibition.

Consider `CCOc1ccc(Oc2ccc(C(=O)/C=C/c3cc(O)c(O)c(Br)c3Br)cc2)cc1`, for which the result (in data set [1]; with Mus musculus [2]; in the data set on Mus musculus [8]; with Mus musculus [9]; in the data set with Mus musculus [10]; in the data set on Mus musculus [12]) was Active. Moreover, in the data set on Mus musculus [14], the result was Active. For the same compound, the inhibition result in the data set on HepG2, with 3T3-L1 and in the data set on C2C12 [6] was “Dose-dependent-effect” each time. Further, in data set [3], the Kd worked out at 61.2 nM. Besides, the Activity entry in [4] is “Non-toxic”; in [5], “Non-toxic”; in data set [11] it was “Non-toxic”; in data set [13], “Non-toxic”; with C2C12 [15], “Dose-dependent-effect”. Besides, in data set [7], the IC50 is > 20000 nM.
